Drawing on DBAASP, this text covers MIC for 14 molecules.

In general, MIC refers to the smallest concentration in the dilution series that meets the test's criterion for growth inhibition. Read a low MIC as a more susceptible organism.

Values after ≈ are worked out from the molar mass of the structure shown. Bounds are passed on as bounds.

Holding throughout (assay): ≥ marks a high value that may be exact or a test limit, other limits are often not marked, values filed in µg/mL are converted to µM
One test concerns Streptococcus mutans.
Test [1] deals with Candida albicans ATCC 2002.
The subject of test [2] is Escherichia coli ATCC 25922.
Test [3] concerns Pseudomonas aeruginosa CMCCB 10104.
Test [4] relates to Staphylococcus aureus ATCC 25923.
Test [5] deals with Pseudomonas aeruginosa PAO1.
The test system of test [6] is Staphylococcus aureus ATCC 43300.

For the molecule `CC(C)C[C@H](NC(=O)[C@H](Cc1c[nH]c2ccccc12)NC(=O)[C@H](CCC(N)=O)NC(=O)[C@H](CC(C)C)NC(=O)[C@H](Cc1ccccc1)NC(=O)[C@@H](NC(=O)[C@H](CCCCN)NC(=O)[C@@H](N)Cc1ccccc1)[C@@H](C)O)C(=O)N[C@@H](Cc1cnc[nH]1)C(=O)N[C@@H](CCCN=C(N)N)C(=O)N[C@@H](Cc1ccccc1)C(N)=O` [FKTFLQWLHRF], the minimal inhibitory concentration (MIC) in the test with Streptococcus mutans worked out at 21 µM (≈ 32 µg/mL). This counts as double-digit micromolar.
Regarding `CC[C@H](C)[C@H](NC(=O)CN)C(=O)N[C@@H](Cc1ccccc1)C(=O)N[C@@H](CO)C(=O)N[C@@H](CCCCN)C(=O)N[C@H](C(=O)N[C@@H](CO)C(=O)NCC(=O)N[C@@H](CCCCN)C(=O)N[C@@H](C)C(=O)N[C@H](C(=O)N[C@@H](CCCCN)C(=O)N[C@@H](CC(N)=O)C(=O)N[C@@H](CC(C)C)C(=O)N[C@@H](Cc1ccccc1)C(=O)N[C@H](C(=O)N[C@@H](CCCCN)C(=O)NCC(=O)N[C@@H](C)C(=O)N[C@@H](CCC(=O)O)C(=O)N[C@@H](CC(N)=O)C(=O)N[C@H](C(=O)NCC(=O)N[C@@H](CCCCN)C(=O)N[C@@H](Cc1cnc[nH]1)C(=O)N[C@H](C(=O)NCC(=O)N[C@@H](CCSC)C(=O)N[C@@H](CC(=O)O)C(=O)N[C@H](C(=O)N[C@H](C(=O)N[C@@H](CCCN=C(N)N)C(=O)N[C@H](C(=O)NCC(=O)N[C@H](C(=O)N[C@@H](CC(=O)O)C(=O)N[C@H](C(=O)N[C@H](C(=O)NCC(=O)N[C@H]1CSSC[C@@H](C(=O)O)NC(=O)[C@H](CCC(=O)O)NC(=O)CNC(=O)[C@H](CCCCN)NC(=O)[C@H]([C@@H](C)CC)NC(=O)[C@H](CCCCN)NC1=O)C(C)C)C(C)C)[C@@H](C)CC)[C@@H](C)O)C(C)C)C(C)C)C(C)C)C(C)C)[C@@H](C)CC)[C@@H](C)CC)[C@@H](C)CC` [GIFSKISGKAIKNLFIKGAENVGKHVGMDVVRTGIDVVGCKIKGEC], the minimal inhibitory concentration (MIC) in test [1], in test [2], in test [3] and in test [4] was 1.79 µM (≈ 8.6 µg/mL) each time.
For `CC[C@H](C)[C@H](NC(=O)CN)C(=O)N[C@@H](CC(C)C)C(=O)N[C@@H](CO)C(=O)NCC(=O)N[C@@H](CC(C)C)C(=O)N[C@@H](CC(C)C)C(=O)NCC(=O)N[C@H](C(=O)NCC(=O)N[C@@H](CCCCN)C(=O)N[C@@H](CCSC)C(=O)N[C@@H](CC(C)C)C(=O)N[C@H](C(=O)N[C@H]1CSSC[C@@H](C(=O)O)NC(=O)[C@H](CC(C)C)NC(=O)CNC(=O)[C@H](CO)NC(=O)[C@H](CC(C)C)NC(=O)CNC1=O)C(C)C)C(C)C` [GILSGLLGVGKMLVCGLSGLC], the minimal inhibitory concentration (MIC) in test [1] was determined as 5.12 µM (≈ 10.2 µg/mL); in test [2], 5.12 µM (≈ 10.2 µg/mL); in test [3] it was 10.2 µM (≈ 20.4 µg/mL); in test [4] it was 10.2 µM (≈ 20.4 µg/mL).
Turning to `CC[C@H](C)[C@H](NC(=O)[C@H](C)NC(=O)[C@H](CCSC)NC(=O)[C@H](CC(N)=O)NC(=O)[C@H](CCCCN)NC(=O)[C@H](Cc1ccccc1)NC(=O)[C@@H](NC(=O)[C@H](CC(=O)O)NC(=O)[C@H](CC(C)C)NC(=O)[C@H](CC(C)C)NC(=O)CN)[C@@H](C)O)C(=O)N[C@@H](CC(N)=O)C(=O)N[C@@H](C)C(=O)N[C@@H](C)C(=O)N[C@@H](Cc1cnc[nH]1)C(=O)NCC(=O)N[C@@H](C)C(=O)NCC(=O)N[C@H](C(=O)N[C@@H](CO)C(=O)N[C@H](C(=O)N[C@@H](CC(C)C)C(=O)N[C@@H](CC(N)=O)C(=O)N[C@@H](C)C(=O)N[C@@H](CC(C)C)C(=O)N[C@@H](CO)C(=O)N[C@H]1CSSC[C@@H](C(=O)O)NC(=O)[C@H]([C@@H](C)O)NC(=O)[C@H](CCCCN)NC(=O)[C@H](CCCCN)NC(=O)[C@H](CC(C)C)NC(=O)[C@H](CCCCN)NC1=O)C(C)C)C(C)C` [GLLDTFKNMAINAAHGAGVSVLNALSCKLKKTC], the minimum inhibitory concentration (MIC) came to 0.944 µM (≈ 3.2 µg/mL) in test [1], 1.86 µM (≈ 6.3 µg/mL) in test [2], 3.72 µM (≈ 12.6 µg/mL) in test [3] and 1.86 µM (≈ 6.3 µg/mL) in test [4].
On to `CSCC[C@H](NC(=O)[C@H](CC(N)=O)NC(=O)[C@H](CCCCN)NC(=O)[C@H](Cc1ccccc1)NC(=O)[C@@H](NC(=O)[C@H](CC(=O)O)NC(=O)[C@H](CC(C)C)NC(=O)[C@H](CC(C)C)NC(=O)CN)[C@@H](C)O)C(=O)N[C@@H](C)C(=O)N[C@@H](CC(C)C)C(=O)N[C@@H](CC(N)=O)C(=O)N[C@@H](C)C(=O)N[C@@H](C)C(=O)N[C@@H](CCCCN)C(=O)N[C@@H](CO)C(=O)N[C@@H](C)C(=O)NCC(=O)N[C@H](C(=O)N[C@@H](CO)C(=O)N[C@H](C(=O)N[C@@H](CC(C)C)C(=O)N[C@@H](CC(N)=O)C(=O)N[C@@H](C)C(=O)N[C@@H](CC(C)C)C(=O)N[C@@H](CO)C(=O)N[C@H]1CSSC[C@@H](C(=O)O)NC(=O)[C@H]([C@@H](C)O)NC(=O)[C@H](CCCCN)NC(=O)[C@H](CO)NC(=O)[C@H](CC(C)C)NC(=O)[C@H](CCCCN)NC1=O)C(C)C)C(C)C` [GLLDTFKNMALNAAKSAGVSVLNALSCKLSKTC], for which the MIC in test [1] is 1.96 µM (≈ 6.6 µg/mL); in test [2], 3.92 µM (≈ 13.2 µg/mL); in test [3], 1.96 µM (≈ 6.6 µg/mL); in test [4] it was 1.96 µM (≈ 6.6 µg/mL).
Molecule `CC[C@H](C)[C@H](N)C(=O)N[C@@H](CCCCN)C(=O)N[C@@H](CCC(N)=O)C(=O)N[C@@H](CC(C)C)C(=O)N[C@@H](CC(C)C)C(=O)N[C@@H](Cc1cnc[nH]1)C(=O)N[C@@H](Cc1ccccc1)C(=O)N[C@@H](Cc1ccccc1)C(=O)N[C@@H](CCC(N)=O)C(=O)N[C@@H](CCCN=C(N)N)C(=O)N[C@@H](Cc1ccccc1)C(=O)NCC(=O)NCC(=O)NCC(=O)N[C@@H](CCCN=C(N)N)C(=O)N[C@@H](Cc1c[nH]c2ccccc12)C(=O)N[C@@H](CCCN=C(N)N)C(=O)N[C@@H](CCCN=C(N)N)C(=O)N[C@@H](CC(C)C)C(=O)N[C@@H](CC(C)C)C(=O)N[C@@H](CCCCN)C(=O)N[C@@H](CCCCN)C(=O)N[C@@H](CC(C)C)C(=O)N[C@@H](Cc1cnc[nH]1)C(=O)N[C@@H](Cc1cnc[nH]1)C(=O)N[C@@H](CC(C)C)C(=O)N[C@@H](CC(C)C)C(=O)N[C@@H](Cc1cnc[nH]1)C(N)=O` [IKQLLHFFQRFGGGRWRRLLKKLHHLLH] had a minimum inhibitory concentration (MIC) against Streptococcus mutans of 4.52 µM (≈ 16 µg/mL).
In the case of `CC[C@H](C)[C@H](N)C(=O)N[C@@H](CCCCN)C(=O)N[C@H](C(=O)N[C@@H](CC(C)C)C(=O)N[C@@H](CC(C)C)C(=O)N[C@@H](Cc1cnc[nH]1)C(=O)N[C@@H](Cc1ccccc1)C(=O)N[C@@H](Cc1ccccc1)C(=O)N[C@@H](CCC(N)=O)C(=O)N[C@@H](CCCN=C(N)N)C(=O)N[C@@H](Cc1ccccc1)C(N)=O)[C@@H](C)O` [IKTLLHFFQRF], the MIC with Streptococcus mutans amounted to 30.8 µM (≈ 44.7 µg/mL).
In the case of `CC(C)C[C@H](NC(=O)[C@@H](NC(=O)[C@H](CCCN=C(N)N)NC(=O)[C@H](CCCCN)NC(=O)[C@@H](NC(=O)[C@H](CCCCN)NC(=O)[C@H](CCC(N)=O)NC(=O)[C@H](C)NC(=O)[C@H](CC(C)C)NC(=O)[C@@H](N)CCCCN)C(C)C)C(C)C)C(=O)N[C@@H](CCCN=C(N)N)C(=O)O` [KLAQKVKRVLR], the MIC in the test with Streptococcus mutans is not below 93.4 µM.
In the case of `CC(C)C[C@H](NC(=O)[C@H](Cc1c[nH]c2ccccc12)NC(=O)[C@@H]1CCCN1C(=O)[C@@H]1CCCN1C(=O)[C@H](CC(C)C)NC(=O)[C@@H](N)CC(C)C)C(=O)N[C@@H](CCCN=C(N)N)C(=O)N1CCC[C@H]1C(=O)N[C@@H](CCCN=C(N)N)C(=O)N[C@@H](CC(N)=O)C(=O)NCC(=O)O` [LLPPWLRPRNG], the MIC is not below 152 µM in test [1], more than 152 µM in test [2], not below 152 µM in test [3] and more than 152 µM in test [4].
The molecule `NCCCC[C@H](NC(=O)[C@H](Cc1c[nH]c2ccccc12)NC(=O)[C@H](Cc1c[nH]c2ccccc12)NC(=O)[C@H](CCCCN)NC(=O)[C@H](CCCN=C(N)N)NC(=O)[C@H](CCCN=C(N)N)NC(=O)[C@@H](N)CCCN=C(N)N)C(=O)O` [RRRKWWK] displayed a minimal inhibitory concentration (MIC) in the test with Streptococcus mutans not below 224 µM.
On to `NC(N)=NCCC[C@H](NC(=O)[C@H](CCCN=C(N)N)NC(=O)[C@H](CCCN=C(N)N)NC(=O)[C@@H](N)CCCN=C(N)N)C(=O)N[C@@H](Cc1c[nH]c2ccccc12)C(=O)N[C@@H](Cc1c[nH]c2ccccc12)C(=O)N[C@@H](Cc1c[nH]c2ccccc12)C(=O)O` [RRRRWWW], for which the MIC in test [5] is 125 µM (≈ 150 µg/mL); in test [6] it was 125 µM (≈ 150 µg/mL); against Streptococcus mutans it was 13.3 µM (≈ 16 µg/mL).
Molecule `C[C@H](NC(=O)[C@H](CO)NC(=O)[C@H](C)NC(=O)[C@H](Cc1ccccc1)NC(=O)[C@H](Cc1c[nH]c2ccccc12)NC(=O)[C@H](CCCN=C(N)N)NC(=O)[C@H](Cc1c[nH]c2ccccc12)NC(=O)[C@H](CCCN=C(N)N)NC(=O)[C@H](Cc1c[nH]c2ccccc12)NC(=O)[C@@H](N)CCCN=C(N)N)C(=O)N[C@@H](CO)C(=O)N[C@@H](C)C(=O)N[C@@H](CCCN=C(N)N)C(=O)N[C@@H](Cc1c[nH]c2ccccc12)C(=O)N[C@@H](CCCN=C(N)N)C(=O)N[C@@H](Cc1c[nH]c2ccccc12)C(=O)N[C@@H](CCCN=C(N)N)C(=O)N[C@@H](Cc1c[nH]c2ccccc12)C(=O)N[C@@H](Cc1ccccc1)C(N)=O` [RWRWRWFASASARWRWRWF] displayed an MIC with Streptococcus mutans of 5.81 µM (≈ 16 µg/mL).
Consider `CC[C@H](C)[C@H](NC(=O)[C@H](CC(N)=O)NC(=O)[C@H](CCCCN)NC(=O)[C@H](CC(C)C)NC(=O)[C@H](CO)NC(=O)[C@H](CCC(N)=O)NC(=O)[C@H](CC(C)C)NC(=O)[C@@H](NC(=O)[C@@H](N)[C@@H](C)O)[C@@H](C)CC)C(=O)N[C@@H](Cc1ccccc1)C(=O)N[C@@H](CCCCN)C(=O)O` [TILQSLKNIFK], for which, in the test with Streptococcus mutans, the MIC was not below 95.8 µM.
For `CC[C@H](C)[C@@H]1NC(=O)[C@@H](NC(=O)[C@H](CCCN=C(N)N)NC(=O)[C@H](CO)NC(=O)[C@@H](N)[C@@H](C)O)CSSC[C@@H](C(=O)N[C@@H](CO)C(=O)O)NC(=O)[C@H](CCCCN)NC(=O)[C@H](CCCCN)NC(=O)[C@H](CCCN=C(N)N)NC(=O)[C@H](CCCN=C(N)N)NC(=O)[C@H](Cc2ccc(O)cc2)NC(=O)[C@H](Cc2ccccc2)NC1=O` [TSRCIFYRRKKCS], the minimum inhibitory concentration (MIC) in test [1] was 18.2 µM (≈ 30 µg/mL); in test [2], 18.2 µM (≈ 30 µg/mL); in test [3], 18.2 µM (≈ 30 µg/mL); in test [4], more than 72.8 µM.
